Laboratory results reported in the supplement of paper PMC11208160.

experiment: recombinant UMI read abundance after kanamycin selection (control-corrected) (log10(CPM+1)); higher = more efficient recombination; extreme values may be limits of the assay; sequences stand for … in AGTGCAGAGAAAATCGGCCAGTTTTCTCTGCCTGCAGTCCGCATGCCGTGGGACCCCTTGGGTTCTAACCTGTTGCCTAGATTTATGCAGCGGACTGCCTTTCTCCCAAAGTGATAAACCGG…AGGTTGGTTTCACT; site = the 11-nt donor
In short: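 The measure is log10(CPM+1) for recombinant UMIs. These were PCR-amplified across the donor–target junction and sequenced after Escherichia coli carrying a donor and donor-binding-loop pair library and a target plasmid with T7-inducible IS621 bridge recombinase was plated on IPTG (0.07 mM) plus kanamycin or unselected. CPM were averaged over two replicates and scaled by control-derived factors.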
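Further: IS621 bridge recombinase in Escherichia coli cells against a fixed T5 target plasmid.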

Sequence | recombinant UMI read abundance (log10)
TCCACGGCATGGACCGGTTTTCCCGGTAATCCGTATTTGCG (site TCCACTGCTCG) | 0
TCCACTTCATGGACCGGTTTTCCCGGTAATCCGTATTTGCC (site TCCAATTCTGG) | 0
TCCACTTCATGGACCGGTTTTCCCGGTAATCCGTATTTGCC (site TCCACTTCTGG) | 0
TCCACTTCATGGACCGGTTTTCCCGGTAATCCGTATTTGCC (site TCCAGTTCTGG) | 0
TCCACTTCATGGACCGGTTTTCCCGGTAATCCGTATTTGCC (site TCCATTTCTGG) | 0
TCCAGATCATGGACCGGTTTTCCCGGTAATCCGTATTTGGG (site TCCAGATCTCC) | 0
TCCAGTGCATGGACCGGTTTTCCCGGTAATCCGTATTTGCT (site TCCAGTGCTAG) | 0
TCCATTCCATGGACCGGTTTTCCCGGTAATCCGTATTTGGA (site TCCATTCCTTC) | 0.0134
TCCCAAACATGGACCGGTTTTCCCGGTAATCCGTATTTGCT (site TCCCAAACTAG) | 0.0138
TCCCACCCATGGACCGGTTTTCCCGGTAATCCGTATTTGAT (site TCCCACCCTAT) | 0.0298
TCCCGCCCATGGACCGGTTTTCCCGGTAATCCGTATTTGCT (site TCCCGCCCTAG) | 0.00858
TCCCTTCCATGGACCGGTTTTCCCGGTAATCCGTATTTGCG (site TCCCTTCCTCG) | 0
TCCGCTGCATGGACCGGTTTTCCCGGTAATCCGTATTTGAA (site TCCGCTGCTTT) | 0
TCCGGTGCATGGACCGGTTTTCCCGGTAATCCGTATTTGCC (site TCCGGTGCTGG) | 0
TCCTACCCATGGACCGGTTTTCCCGGTAATCCGTATTTGGT (site TCCTACCCTAC) | 0.00951
TCCTAGCCATGGACCGGTTTTCCCGGTAATCCGTATTTGTA (site TCCTAGCCTTA) | 0.0223
TCCTATTCATGGACCGGTTTTCCCGGTAATCCGTATTTGCC (site TCCAATTCTGG) | 0
TCCTATTCATGGACCGGTTTTCCCGGTAATCCGTATTTGCC (site TCCCATTCTGG) | 0
TCCTATTCATGGACCGGTTTTCCCGGTAATCCGTATTTGCC (site TCCGATTCTGG) | 0
TCCTATTCATGGACCGGTTTTCCCGGTAATCCGTATTTGCC (site TCCTATTCTGG) | 0
TCCTCCCCATGGACCGGTTTTCCCGGTAATCCGTATTTGCG (site TCCTCCCCTCG) | 0.00424
TCCTCCGCATGGACCGGTTTTCCCGGTAATCCGTATTTGCG (site TCCACCGCTCG) | 0.00517
TCCTCCGCATGGACCGGTTTTCCCGGTAATCCGTATTTGCG (site TCCCCCGCTCG) | 0.0138
TCCTCCGCATGGACCGGTTTTCCCGGTAATCCGTATTTGCG (site TCCGCCGCTCG) | 0
TCCTCCGCATGGACCGGTTTTCCCGGTAATCCGTATTTGCG (site TCCTCCGCTCG) | 0.0201

Sequence | recombinant UMI read abundance (log10)
TCCTCCTCATGGACCGGTTTTCCCGGTAATCCGTATTTGCC (site TCCTCCTCTGG) | 0
TCCTTGACATGGACCGGTTTTCCCGGTAATCCGTATTTGCT (site TACTTGACTAG) | 0.397
TCCTTGACATGGACCGGTTTTCCCGGTAATCCGTATTTGCT (site TCCTTGACTAG) | 0
TCCTTGACATGGACCGGTTTTCCCGGTAATCCGTATTTGCT (site TGCTTGACTAG) | 0
TCCTTGACATGGACCGGTTTTCCCGGTAATCCGTATTTGCT (site TTCTTGACTAG) | 0
TCGAAGCCATGGACCGGTTTTCCCGGTAATCCGTATTTGGG (site ACGAAGCCTCC) | 0.0545
TCGAAGCCATGGACCGGTTTTCCCGGTAATCCGTATTTGGG (site CCGAAGCCTCC) | 0.0131
TCGAAGCCATGGACCGGTTTTCCCGGTAATCCGTATTTGGG (site GCGAAGCCTCC) | 0.0961
TCGAAGCCATGGACCGGTTTTCCCGGTAATCCGTATTTGGG (site TCGAAGCCTCC) | 0.0129
TCGAATACATGGACCGGTTTTCCCGGTAATCCGTATTTGAG (site TCGAATACTCT) | 1.44
TCGACAGCATGGACCGGTTTTCCCGGTAATCCGTATTTGTA (site TCGACAGCTTA) | 1.02
TCGACATCATGGACCGGTTTTCCCGGTAATCCGTATTTGCG (site TCGACATCTCG) | 0.266
TCGACCGCATGGACCGGTTTTCCCGGTAATCCGTATTTGCG (site TCAACCGCTCG) | 0.00755
TCGACCGCATGGACCGGTTTTCCCGGTAATCCGTATTTGCG (site TCCACCGCTCG) | 0
TCGACCGCATGGACCGGTTTTCCCGGTAATCCGTATTTGCG (site TCGACCGCTCG) | 0.0218
TCGACCGCATGGACCGGTTTTCCCGGTAATCCGTATTTGCG (site TCTACCGCTCG) | 0.0287
TCGACCTCATGGACCGGTTTTCCCGGTAATCCGTATTTGGA (site TCGACCTCTTC) | 0.524
TCGAGAGCATGGACCGGTTTTCCCGGTAATCCGTATTTGGC (site TCGAGAGCTGC) | 1.86
TCGCACACATGGACCGGTTTTCCCGGTAATCCGTATTTGGG (site TCGCACACTCC) | 0.0145
TCGCAGACATGGACCGGTTTTCCCGGTAATCCGTATTTGCG (site TCGCAGACTCG) | 0.0105
TCGCAGCCATGGACCGGTTTTCCCGGTAATCCGTATTTGCT (site TCGCAGCCTAG) | 0
TCGCCATCATGGACCGGTTTTCCCGGTAATCCGTATTTGGC (site GAAGGCCCTAG) | 0
TCGCGTACATGGACCGGTTTTCCCGGTAATCCGTATTTGGG (site TCGCGTACTCC) | 0.0193
TCGCTAGCATGGACCGGTTTTCCCGGTAATCCGTATTTGCT (site TCGCTAGCTAG) | 0
TCGCTCTCATGGACCGGTTTTCCCGGTAATCCGTATTTGGC (site TCGCTCTCTGC) | 0

Sequence | recombinant UMI read abundance (log10)
TCGCTGACATGGACCGGTTTTCCCGGTAATCCGTATTTGTA (site TCGCTGACTTA) | 1.3
TCGGACCCATGGACCGGTTTTCCCGGTAATCCGTATTTGGG (site TCGGACCCTCC) | 0.036
TCGGACCCATGGACCGGTTTTCCCGGTAATCCGTATTTGTT (site TCGGACCCTAA) | 0.013
TCGGTAGCATGGACCGGTTTTCCCGGTAATCCGTATTTGTG (site TCGGTAGCTCA) | 0.629
TCGTACGCATGGACCGGTTTTCCCGGTAATCCGTATTTGCC (site TCGTACGCTGG) | 0
TCGTATCCATGGACCGGTTTTCCCGGTAATCCGTATTTGAC (site TCGTATCCTGT) | 0
TCGTCACCATGGACCGGTTTTCCCGGTAATCCGTATTTGTA (site TCGTCACCTTA) | 0.0393
TCGTGCACATGGACCGGTTTTCCCGGTAATCCGTATTTGAC (site TCGTGCACTGT) | 1.93
TCGTTCGCATGGACCGGTTTTCCCGGTAATCCGTATTTGCT (site TCGTTCGCTAG) | 0
TCTAAGTCATGGACCGGTTTTCCCGGTAATCCGTATTTGCA (site TCTAAGTCTTG) | 0.436
TCTAGAACATGGACCGGTTTTCCCGGTAATCCGTATTTGAG (site ACTAGAACTCT) | 0.00743
TCTAGAACATGGACCGGTTTTCCCGGTAATCCGTATTTGAG (site CCTAGAACTCT) | 0.0482
TCTAGAACATGGACCGGTTTTCCCGGTAATCCGTATTTGAG (site GCTAGAACTCT) | 0
TCTAGAACATGGACCGGTTTTCCCGGTAATCCGTATTTGAG (site TCTAGAACTCT) | 0.00301
TCTATGACATGGACCGGTTTTCCCGGTAATCCGTATTTGTG (site TCTATGACTCA) | 0.00894
TCTGGACCATGGACCGGTTTTCCCGGTAATCCGTATTTGAC (site TCTGGACCTGT) | 0
TCTGGCGCATGGACCGGTTTTCCCGGTAATCCGTATTTGCC (site TCTGGCGCTGG) | 0
TCTTCCGCATGGACCGGTTTTCCCGGTAATCCGTATTTGAT (site TCTTCCGCTAT) | 0.00526
TCTTCGGCATGGACCGGTTTTCCCGGTAATCCGTATTTGGC (site TCTTCGGCTGC) | 0
TGAAGCTCATGGACCGGTTTTCCCGGTAATCCGTATTTGGG (site TGAAGCTCTCC) | 0.0156
TGACAACCATGGACCGGTTTTCCCGGTAATCCGTATTTGCC (site TGACAACCTGG) | 0
TGACACCCATGGACCGGTTTTCCCGGTAATCCGTATTTGAA (site TGACACCCTTT) | 0.0711
TGACCGGCATGGACCGGTTTTCCCGGTAATCCGTATTTGGC (site TGACCGGCTGC) | 1.25
TGACCGGCATGGACCGGTTTTCCCGGTAATCCGTATTTGGC (site TGCCCGGCTGC) | 0
TGACCGGCATGGACCGGTTTTCCCGGTAATCCGTATTTGGC (site TGGCCGGCTGC) | 0
